Experiments:
Format in all cases: biochemical
[1] = molecular target: FGFR2 (Homo sapiens (Human), UniProt P21802); experiment: FGFR enzymatic assay (FRET peptide phosphorylation), FGFR2; settings: FGFR2 enzyme 0.01 nM, ATP 100 μM
Procedure, shortened: (§1)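 Recombinant kinase was pre-incubated 5–10 min with serially diluted inhibitor in HEPES buffer (10 mM MgCl2, 5 mM DTT, pH 7.5; buffer described for FGFR3). Peptide phosphorylation ran 1 h at 25 °C and was detected by FRET after ~1 h equilibration. IC50 values come from variable-slope sigmoidal fits.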

[2] = molecular target: FGFR3 (Homo sapiens (Human), UniProt P22607); experiment: FGFR enzymatic assay (FRET peptide phosphorylation), FGFR3; settings: FGFR3 enzyme (Millipore), ATP 140 μM
Sequence of FGFR3 (P22607 23-806): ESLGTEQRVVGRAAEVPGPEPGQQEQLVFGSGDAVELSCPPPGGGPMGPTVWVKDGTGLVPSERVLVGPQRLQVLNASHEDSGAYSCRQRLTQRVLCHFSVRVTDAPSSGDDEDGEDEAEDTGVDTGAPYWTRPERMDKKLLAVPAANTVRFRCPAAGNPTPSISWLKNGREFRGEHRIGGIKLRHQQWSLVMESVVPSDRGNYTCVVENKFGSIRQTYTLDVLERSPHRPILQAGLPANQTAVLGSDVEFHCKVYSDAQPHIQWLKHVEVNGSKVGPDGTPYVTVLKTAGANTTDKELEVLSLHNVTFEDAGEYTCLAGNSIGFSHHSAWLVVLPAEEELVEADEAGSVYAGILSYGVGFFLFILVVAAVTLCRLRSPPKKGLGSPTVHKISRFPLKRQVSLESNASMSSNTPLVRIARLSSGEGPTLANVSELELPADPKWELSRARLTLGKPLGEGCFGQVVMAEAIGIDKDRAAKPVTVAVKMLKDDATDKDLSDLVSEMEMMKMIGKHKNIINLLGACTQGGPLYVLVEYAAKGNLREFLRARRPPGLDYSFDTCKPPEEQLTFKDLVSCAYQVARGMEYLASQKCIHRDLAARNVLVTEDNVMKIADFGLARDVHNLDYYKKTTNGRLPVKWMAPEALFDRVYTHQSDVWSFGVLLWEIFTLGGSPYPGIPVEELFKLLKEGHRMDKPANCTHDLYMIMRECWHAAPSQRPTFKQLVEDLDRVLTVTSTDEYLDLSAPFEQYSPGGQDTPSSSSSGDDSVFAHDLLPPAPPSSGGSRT
Procedure, shortened: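 FRET assay of peptide phosphorylation by FGFR3 in HEPES pH 7.5 buffer with MgCl2, EGTA, Tween-20 and DTT. Enzyme was pre-incubated 5-10 min with compound, and the reaction ran 1 hr at 25° C. IC50 came from a variable-slope sigmoidal fit.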

[3] = molecular target: FGFR1 (Homo sapiens (Human), UniProt P11362); experiment: FGFR enzymatic assay (FRET peptide phosphorylation), FGFR1; settings: FGFR1 enzyme 0.02 nM, ATP 210 μM
Sequence of FGFR1 (P11362 22-822): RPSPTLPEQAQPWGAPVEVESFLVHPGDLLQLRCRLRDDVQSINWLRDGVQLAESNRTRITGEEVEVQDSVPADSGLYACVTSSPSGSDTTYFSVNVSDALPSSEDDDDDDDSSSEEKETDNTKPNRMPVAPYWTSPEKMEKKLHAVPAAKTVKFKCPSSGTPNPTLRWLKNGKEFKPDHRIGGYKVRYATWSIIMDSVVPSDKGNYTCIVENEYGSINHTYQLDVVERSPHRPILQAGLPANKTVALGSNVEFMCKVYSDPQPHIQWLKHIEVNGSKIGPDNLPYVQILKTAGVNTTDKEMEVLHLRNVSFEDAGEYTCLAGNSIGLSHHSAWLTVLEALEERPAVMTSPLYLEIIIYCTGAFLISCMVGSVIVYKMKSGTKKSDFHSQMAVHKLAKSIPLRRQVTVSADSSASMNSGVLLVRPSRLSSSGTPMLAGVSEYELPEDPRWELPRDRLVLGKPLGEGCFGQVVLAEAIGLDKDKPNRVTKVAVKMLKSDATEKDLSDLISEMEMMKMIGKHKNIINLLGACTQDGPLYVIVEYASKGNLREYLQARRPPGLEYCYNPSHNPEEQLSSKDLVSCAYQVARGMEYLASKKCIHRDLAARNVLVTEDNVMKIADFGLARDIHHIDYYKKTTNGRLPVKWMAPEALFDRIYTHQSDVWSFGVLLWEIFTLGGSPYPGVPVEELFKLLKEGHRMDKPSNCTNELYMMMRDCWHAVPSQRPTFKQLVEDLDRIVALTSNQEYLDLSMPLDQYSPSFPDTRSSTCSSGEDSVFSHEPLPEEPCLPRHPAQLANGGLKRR
Procedure, shortened: as §1

Measured: IC50

Sequence of FGFR2 (P21802 22-821): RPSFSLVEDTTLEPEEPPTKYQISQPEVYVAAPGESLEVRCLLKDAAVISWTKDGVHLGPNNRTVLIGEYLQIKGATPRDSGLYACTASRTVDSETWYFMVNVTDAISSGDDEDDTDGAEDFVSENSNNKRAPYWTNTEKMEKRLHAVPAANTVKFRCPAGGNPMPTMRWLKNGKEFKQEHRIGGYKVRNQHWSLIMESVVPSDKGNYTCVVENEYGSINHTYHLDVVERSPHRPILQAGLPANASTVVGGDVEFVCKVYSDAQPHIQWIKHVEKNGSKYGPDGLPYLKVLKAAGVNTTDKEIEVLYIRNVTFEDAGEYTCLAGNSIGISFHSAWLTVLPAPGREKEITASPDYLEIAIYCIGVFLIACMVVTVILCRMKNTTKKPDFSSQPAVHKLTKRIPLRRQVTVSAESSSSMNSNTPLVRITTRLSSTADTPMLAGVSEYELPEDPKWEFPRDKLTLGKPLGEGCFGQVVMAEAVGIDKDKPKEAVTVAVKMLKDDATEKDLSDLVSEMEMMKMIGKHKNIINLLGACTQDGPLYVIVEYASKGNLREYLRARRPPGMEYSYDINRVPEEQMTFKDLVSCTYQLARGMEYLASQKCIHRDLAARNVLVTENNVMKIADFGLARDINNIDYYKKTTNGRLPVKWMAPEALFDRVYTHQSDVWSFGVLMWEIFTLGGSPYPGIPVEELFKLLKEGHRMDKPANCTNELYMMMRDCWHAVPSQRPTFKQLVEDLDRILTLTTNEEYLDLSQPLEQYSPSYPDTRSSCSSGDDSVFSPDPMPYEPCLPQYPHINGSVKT

COc1cc(OC)c(F)c(N2Cc3cnc4[nH]c(CN5CCN(C)CC5)cc4c3N(c3cccc(F)c3)C2=O)c1F [Example 213, 3-(2,6-difluoro-3,5-dimethoxyphenyl)-1-(3-fluorophenyl)-8-[(4-methylpiperazin-1-yl)methyl]-1,3,4,7-tetrahydro-2H-pyrrolo[3′,2′:5,6]pyrido[4,3-d]pyrimidin-2-one]
< 100 nM: all assays above

COc1cc(OC)c(F)c(N2Cc3cnc4c(c3N([C@@H]3CCC[C@H]3O)C2=O)CC(=O)N4)c1F [Example 75, 3-(2,6-difluoro-3,5-dimethoxyphenyl)-1-[(1R,2R)-2-hydroxycyclopentyl]-3,4,7,9-tetrahydro-1H-pyrrolo[3′,2′:5,6]pyrido[4,3-d]pyrimidine-2,8-dione]
< 100 nM: all assays above

COc1cc(OC)c(F)c(N2Cc3cnc4[nH]ncc4c3N(Cc3cscn3)C2=O)c1F [Example 163, 3-(2,6-Difluoro-3,5-dimethoxyphenyl)-1-(1,3-thiazol-4-ylmethyl)-1,3,4,7-tetrahydro-2H-pyrazolo[4′,3′:5,6]pyrido[4,3-d]pyrimidin-2-one]
< 100 nM: all assays above

COc1cc(OC)c(F)c(N2Cc3cnc4[nH]c(CN5CC[C@@H](C#N)C5)cc4c3N(C)C2=O)c1F [Example 209, (3R)-1-{[3-(2,6-difluoro-3,5-dimethoxyphenyl)-1-methyl-2-oxo-2,3,4,7-tetrahydro-1H-pyrrolo[3′,2′:5,6]pyrido[4,3-d]pyrimidin-8-yl]methyl}pyrrolidine-3-carbonitrile]
< 100 nM: all assays above

COc1cc(OC)c(F)c(N2Cc3cnc4[nH]c(Cc5cnn(C)c5)cc4c3N(C)C2=O)c1F [Example 139, 3-(2,6-difluoro-3,5-dimethoxyphenyl)-1-methyl-8-[(1-methyl-1H-pyrazol-4-yl)methyl]-1,3,4,7-tetrahydro-2H-pyrrolo[3′,2′:5,6]pyrido[4,3-d]pyrimidin-2-one]
< 100 nM: all assays above

COc1cc(OC)c(F)c(N2Cc3cnc4[nH]ncc4c3N(c3ccccc3OC(F)F)C2=O)c1F [Example 164, 3-(2,6-Difluoro-3,5-dimethoxyphenyl)-1-[2-(difluoromethoxy)phenyl]-1,3,4,7-tetrahydro-2H-pyrazolo[4′,3′:5,6]pyrido[4,3-d]pyrimidin-2-one]
< 100 nM: all assays above

COc1cc(OC)c(F)c(N2Cc3cnc4[nH]c(C(=O)N5C[C@@H](C)N[C@@H](C)C5)cc4c3N(C)C2=O)c1F [Example 120, 3-(2,6-difluoro-3,5-dimethoxyphenyl)-8-{[(3R,5S)-3,5-dimethylpiperazin-1-yl]carbonyl}-1-methyl-1,3,4,7-tetrahydro-2H-pyrrolo[3′,2′:5,6]pyrido[4,3-d]pyrimidin-2-one]
< 100 nM: all assays above

COc1cc(OC)c(Cl)c(N2Cc3cnc4[nH]c(C(=O)N5CCN(C)CC5)cc4c3N(C)C2=O)c1 [Example 26, 3-(2-Chloro-3,5-dimethoxyphenyl)-1-methyl-8-[(4-methylpiperazin-1-yl)carbonyl]-1,3,4,7-tetrahydro-2H-pyrrolo[3′,2′:5,6]pyrido[4,3-d]pyrimidin-2-one]
< 100 nM: all assays above

COc1cc(OC)c(F)c(N2Cc3cnc4[nH]c(CCN5CCOCC5)cc4c3N(c3cccc(F)c3F)C2=O)c1F [Example 222, 3-(2,6-difluoro-3,5-dimethoxyphenyl)-1-(2,3-difluorophenyl)-8-(2-morpholin-4-ylethyl)-1,3,4,7-tetrahydro-2H-pyrrolo[3′,2′:5,6]pyrido[4,3-d]pyrimidin-2-one]
< 100 nM: all assays above

CCN1CCN(CCc2cc3c4c(cnc3[nH]2)CN(c2c(F)c(OC)cc(OC)c2F)C(=O)N4C)CC1 [Example 71, 3-(2,6-difluoro-3,5-dimethoxyphenyl)-8-[2-(4-ethylpiperazin-1-yl)ethyl]-1-methyl-1,3,4,7-tetrahydro-2H-pyrrolo[3′,2′:5,6]pyrido[4,3-d]pyrimidin-2-one]
< 100 nM: all assays above

CNC(=O)c1cc2c3c(cnc2[nH]1)CN(c1cc(OC)cc(OC)c1)C(=O)N3C [Example 12, 3-(3,5-Dimethoxyphenyl)-N,1-dimethyl-2-oxo-2,3,4,7-tetrahydro-1H-pyrrolo[3′,2′:5,6]pyrido[4,3-d]pyrimidine-8-carboxamide]
< 100 nM: all assays above

CCN1CCN(CCc2cc3c4c(cnc3[nH]2)CN(c2c(F)c(OC)cc(OC)c2F)C(=O)N4c2cccc(F)c2F)CC1 [Example 224, 3-(2,6-difluoro-3,5-dimethoxyphenyl)-1-(2,3-difluorophenyl)-8-[2-(4-ethylpiperazin-1-yl)ethyl]-1,3,4,7-tetrahydro-2H-pyrrolo[3′,2′:5,6]pyrido[4,3-d]pyrimidin-2-one]
< 100 nM: all assays above

COc1cc(OC)c(F)c(N2Cc3cnc4[nH]c(CN5CCN(CCC#N)CC5)cc4c3N(C)C2=O)c1F [Example 131, 3-(4-{[3-(2,6-difluoro-3,5-dimethoxyphenyl)-1-methyl-2-oxo-2,3,4,7-tetrahydro-1H-pyrrolo[3′,2′:5,6]pyrido[4,3-d]pyrimidin-8-yl]methyl}piperazin-1-yl)propanenitrile]
< 100 nM: all assays above

COc1cc(OC)c(F)c(N2Cc3cnc4[nH]c(CCCN5CCOCC5)cc4c3N(C)C2=O)c1F [Example 117, 3-(2,6-difluoro-3,5-dimethoxyphenyl)-1-methyl-8-(3-morpholin-4-ylpropyl)-1,3,4,7-tetrahydro-2H-pyrrolo[3′,2′:5,6]pyrido[4,3-d]pyrimidin-2-one]
< 100 nM: all assays above

COc1cc(OC)c(F)c(N2Cc3cnc4[nH]ncc4c3N(c3ccccc3OC(F)(F)F)C2=O)c1F [Example 92, 3-(2,6-difluoro-3,5-dimethoxyphenyl)-1-[2-(trifluoromethoxy)phenyl]-1,3,4,7-tetrahydro-2H-pyrazolo[4′,3′:5,6]pyrido[4,3-d]pyrimidin-2-one]
< 100 nM: all assays above

COc1cc(OC)cc(N2Cc3cnc4[nH]ccc4c3N(C3CC3)C2=O)c1 [Example 4, 1-Cyclopropyl-3-(3,5-dimethoxyphenyl)-1,3,4,7-tetrahydro-2H-pyrrolo[3′,2′:5,6]pyrido[4,3-d]pyrimidin-2-one]
< 100 nM: all assays above

CCN1C(=O)N(c2c(F)c(OC)cc(OC)c2Cl)Cc2cnc3[nH]c(CN4CCOCC4)cc3c21 [Example 141, 3-(2-chloro-6-fluoro-3,5-dimethoxyphenyl)-1-ethyl-8-(morpholin-4-ylmethyl)-1,3,4,7-tetrahydro-2H-pyrrolo[3′,2′:5,6]pyrido[4,3-d]pyrimidin-2-one]
< 100 nM: all assays above

COc1cc(OC)c(F)c(N2Cc3cnc4[nH]ccc4c3CC2=O)c1F [Example 60, 7-(2,6-difluoro-3,5-dimethoxyphenyl)-3,6,7,9-tetrahydro-8H-pyrrolo[2,3-c]-2,7-naphthyridin-8-one]
< 100 nM: all assays above

Reference: patent US9611267B2, “Substituted tricyclic compounds as FGFR inhibitors” (Incyte Corporation, priority 2012, dated 2017)
